Assay results published in US20060269928A1, “Compositions, methods and apparatus for supercritical fluid virus inactivation” (Aphios Corporation, priority 2005, published 2006).
Several values for one entry are separate records, joined by “and”; a condition that tells them apart may be missing. Equal entries are not always repeated. Where two headings read alike, the source gives them in different places. Marks after values point to notes of the source that are not given here.

Key:
Reovirus = assay type: cell-based
Poliovirus = assay type: cell-based; details: 3,000 psig, 50 °C, single stage, matrix FBS
[1] = tested on: encephalomyocarditis (EMC) virus; assay type: cell-based
Sindbis = assay type: cell-based
HIV-1 p24 = details: 3,000 psig, 22 °C, single-stage; for Δp24 [% Change]: versus t & T control
HIV-1Δtat-rev = details: 3,000 psig, 22 °C, single-stage; for −Log10 Inactivation: versus time and temperature control; for Log10 TCID50/ml (CFI-treated): virus supernatant diluted 1:10 in RPMI
[2] = tested on: Bovine Diarrhea Virus (BVD); assay type: cell-based
Hepatitis A (HAV) virus = assay type: cell-based
parvovirus B19 [3] = test: B19 DNA titre of CFI-treated plasma samples; design: species or system human parvovirus B19; details: 206 bars, 4 ml/min
Experimental: The conditions of different experiments performed for NIBSC, London, England with parvovirus B19-spiked in human plasma samples free of B19 antibodies are recorded in Table 16. […] Five or six samples were produced in each of the six experiments. A 2.5 ml aliquot of the feed was taken at the start of the treatment and stored at 4° C. during the run (named “before”) and a second 2.5 ml sample was placed at the same temperature as the SCoNCF system for the same duration as a control (named “time and temperature”). Once the system (isobaric chamber, connecting lines, valves and gauges) was pressurized with the supercritical fluid, the sample was pumped through the isobaric chamber at the rate of 4 ml/min. […] Finally, the system was depressurized to atmospheric pressure (1.01 bars).

TGE = assay type: cell-based
Human Adenovirus, Type 5 = assay type: cell-based
parvovirus B19 [4] = test: B19 infectivity assay of CFI-treated plasma samples; assay type: cell-based, human parvovirus B19; details: 206 bars; for Infectious Units per ml, CFI-Treated Samples: 4 ml/min
[5] = tested on: vesicular stomatitis virus (VSV); assay type: cell-based; details: for −log10 Kill: 3,000 psig, 50 °C, single stage, matrix FBS; for −log10 reduction: 4,000 psig, <1 min
[6] = tested on: murine leukemia virus (MuLV); test: SCoNCF CFI inactivation of murine leukemia virus in laminar flow injection unit; assay type: cell-based, murine-C retrovirus (MuLV); details: 2,000 psig, 22 °C, <1 min
[7] = Expt 01: 50 °C, 2 stages, human plasma
[8] = Expt 02/04: 25 °C, 1 stage, volumetric average of two samples

## FC(F)Cl [FREON-22, hydrodifluorochloromethane]
Reovirus
  −log10 Kill: 0.9 and 1.0
Poliovirus
  −log10 Kill: 4.1 and 4.2
Poliovirus; listed as Freon-22
  −log10 Kill: 4.1 and 4.2
[1]
  EMC inactivated on the average: ~6 logs
  EMC inactivation on the average: 5.7 logs
  increase of inactivation for every 10 °C increase in temperature: ~1 log
Sindbis
  −log10 Kill: >6.5
HIV-1 p24
  p24 [CFI-treated]: 112 ng/mL
  Δp24 [% Change]: −7%
HIV-1Δtat-rev
  −Log10 Inactivation: >5.1
  Log10 TCID50/ml (CFI-treated): undetected
[2]
  −log10 Kill: 2.3
Hepatitis A (HAV) virus
  −log10 Kill: 1.3 and 1.0
Parvovirus B19 [3]; [7]
  B19 DNA Titre (IU/ml), CFI-Treated Samples: 5 × 10^10 IU/ml
Parvovirus B19 [3]; [8]
  B19 DNA Titre (IU/ml), CFI-Treated Samples: 2 × 10^11* IU/ml
TGE
  −log10 Kill: >2.5 and >2.6
Human Adenovirus, Type 5
  −log10 Kill: >5.3 and >5.1
Parvovirus B19 [4]; 50 °C, two-stage laminar flow CFI unit
  change in infectivity titer compared with the untreated sample: ~2 log10
Parvovirus B19 [4]; [7]
  Infectious Units per ml, CFI-Treated Samples: 5 × 10^3 Infectious Units per ml
Parvovirus B19 [4]; [8]
  Infectious Units per ml, CFI-Treated Samples: 2 × 10^5* Infectious Units per ml
[5]
  −log10 Kill: >6.5 and >6.6
[5]; listed as Freon-22
  −log10 Kill: > 6.6 and > 6.5

## O=C=O [CO2, carbon dioxide]
HIV-1 p24
  p24 [CFI-treated]: 15 ng/mL
  Δp24 [% Change]: +7%
HIV-1Δtat-rev
  −Log10 Inactivation: >3.7
  Log10 TCID50/ml (CFI-treated): undetected

## N#N [N2]
HIV-1 p24
  p24 [CFI-treated]: 143 ng/mL
  Δp24 [% Change]: +34%
HIV-1Δtat-rev
  −Log10 Inactivation: >5.1
  Log10 TCID50/ml (CFI-treated): undetected

## CCC [C3H8, Propane]
HIV-1 p24
  p24 [CFI-treated]: 175 ng/mL
  Δp24 [% Change]: +20%
HIV-1Δtat-rev
  −Log10 Inactivation: 0.9
  Log10 TCID50/ml (CFI-treated): 4.1

## [N-]=[N+]=O [NITROUS OXIDE, nitrous oxide]
[6]; 1 stage
  −log10 reduction: 2.3 and 2.0
[6]; 1 stage, listed as nitrous oxide
  −log10 reduction: about 2
[6]; 2 stages
  −log10 reduction: >5.5
[6]; 2 stages, listed as nitrous oxide
  −log10 reduction: greater than 5.5
HIV-1 p24
  p24 [CFI-treated]: 70 ng/mL
  Δp24 [% Change]: +25%
HIV-1Δtat-rev
  −Log10 Inactivation: >2.8
  Log10 TCID50/ml (CFI-treated): undetected
[5]; 40 °C, 1 stage
  −log10 reduction: 2.5
[5]; 40 °C, 2 stages
  −log10 reduction: >5.5
[5]; 5,000 psig, 22 °C
  inactivation: ~2 logs
[5]; 5,000 psig, 40 °C
  average inactivation: 4 logs

## FC(Cl)C(F)(F)F (stereo not drawn) [Fr-124]
[1]
  −log10 Kill: 0.5 and 0.4

## FC(F)F [Fr-23, trifluoromethane]
[1]
  EMC inactivated on the average: ~3 logs
HIV-1 p24
  p24 [CFI-treated]: 20 ng/mL
  Δp24 [% Change]: +43%
HIV-1Δtat-rev
  −Log10 Inactivation: >3.7
  Log10 TCID50/ml (CFI-treated): undetected
Parvovirus B19 [3]; [8]
  B19 DNA Titre (IU/ml), CFI-Treated Samples: 2.5 × 10^10* IU/ml
Parvovirus B19 [4]; [8]
  Infectious Units per ml, CFI-Treated Samples: 1.7 × 10^6* Infectious Units per ml
